Values joined by “and” are separate entries in the source; they are usually repeats but may differ in a detail not shown here. Equal values may be shown once.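 Test compounds were applied to cells in 96-well plates for 48 hours at 5 doses. GI50 marks 50% less growth. TGI: total growth inhibition.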
Test system: MDA-MB-468 breast
Assay: NCI tumour cell line growth inhibition, 48 h

Compound | GI50 | TGI
CCCn1cnc2c(c1=N)C(c1ccc(OC)cc1)c1sc3c(C)cccc3c1O2 (stereo not given) | 360 nM | 13.4 µM
COc1ccc(-c2csc3c2-n2cccc2C3=O)cc1O | 397 nM | 2.43 µM
CC(C)CCC[C@@H](C)[C@H]1CCC2C3=CCC4C(=O)C=CC(=O)C4C3CC[C@@]21C (stereo not given in full) | 215 nM | 0.57 µM
COC1[C@@H]2C[C@H]3C(C)(C)O[C@@](C/C=C(/C)C(=O)O)(C2=O)[C@]32Oc3c(CC=C(C)C)c4c(c(O)c3C(=O)[C@H]12)C=CC(C)(C)O4 (stereo not given in full) | 7460 nM | 25 µM
Cc1ccccc1C(C(=O)NC1CCCCC1)N(C(=O)Cn1ccnc1C)c1cccc(F)c1 (stereo not given) | > 100000 nM | > 100 µM
COc1cc(OC)cc(-c2cncn2-c2ccc(-c3nc4cc(OC)cc(OC)c4s3)cc2)c1 | 3170 nM | > 100 µM
C[C@@H]1COC(Nc2ccc3ncnc(Nc4ccc(OCc5nccs5)c(Cl)c4)c3c2)=N1 | 181 nM and 39.6 nM | 1.59 µM and 0.294 µM
O=C1OCC2=C1C(c1cccc(C(F)(F)F)c1)c1cc3c(cc1N2CCO)CCC3 (stereo not given) | 127 nM | 1.2 µM
COc1cc(-c2n/c(=C\c3c(O)[nH]c4ccccc34)cc3c2=Nc2ccccc2-3)cc(OC)c1OC | 2570 nM | 7.74 µM
Cc1ccc(Oc2nc3ccccc3cc2-c2nnc(Cn3c(COc4ccccc4)nc4ccccc43)o2)cc1 | 3950 nM | 18.3 µM
COc1ccc(-c2nc3sc4c(c3c(=O)[nH]2)CCCC4)c2ccccc12 | 1420 nM | 5.55 µM and 8.96 µM
Cc1ccc(F)cc1NC(=O)c1cc(Cl)ccc1Nc1ccccc1 | > 100000 nM | > 100 µM
Cc1ccc(C[P+](c2ccccc2)(c2ccccc2)c2ccccc2)cc1 | 172 nM | 1.19 µM
Oc1cc(Cl)ccc1Cc1ccc(Cl)cc1O | 11700 nM | 35.5 µM
COc1ccc(-c2ccccc2)cc1-c1c(Nc2cc(Cl)cc(Cl)c2O)c(=O)c1=O | 1130 nM | 3.91 µM
O=[N+]([O-])/C=C/c1ccc([N+](=O)[O-])cc1 | 1510 nM | 3.3 µM
COc1ccc(-c2cc(-c3nnc(SCC(=O)Nc4ccc(C(C)=O)cc4)o3)c3ccccc3n2)cc1 | > 100000 nM | > 100 µM
O=C(Nc1cccc(-n2ccc3c(NC(=O)c4ccccc4)nccc32)c1)c1cc(N2CCOCC2)cc(C(F)(F)F)c1 | 48.4 nM | 1.42 µM
COc1ccc(/C=C\c2cc(OC)c(OC)c(OC)c2)cc1OCC(=O)Nc1nc2ccc(OC(F)(F)F)cc2s1 | 2300 nM | 6.88 µM
CCN1CCC(CC(=O)Nc2n[nH]c3nc(-c4cccs4)c(Br)cc23)CC1 | 4530 nM | 10.8 µM

Compound | GI50 | TGI
Oc1ccc(CN(Cc2ccc(C(F)(F)F)cc2)Cc2ccc(O)c3ncccc23)c2cccnc12 | 23.6 nM | 2.23 µM
Cc1ccc(-c2cc3nc(C(Cl)Cl)nc(-c4ccco4)n3n2)cc1 | 566 nM | 3.05 µM
Nc1nc(-c2cccc([N+](=O)[O-])c2)c(N=Nc2ccc([N+](=O)[O-])cc2Cl)s1 | 131 nM | 0.711 µM
N/C(=N\c1nc2ccccc2s1)NC(=O)Nc1cccc2ccccc12 | 372 nM | 22.7 µM
CCCCCCN1CCN(Cc2ccc(N(CC)CC)cc2)C(=O)C1=O | 1590 nM | 16.1 µM
COc1ccc2[nH]cc(-c3nc(-c4c[nH]c5ccncc45)cs3)c2c1 | 1780 nM | 3.67 µM
Cc1cc(C)c2c(N)c3cccc(C)c3nc2n1 | 1280 nM | 3.37 µM
Cc1cc(NC(=O)NC(=O)c2ccccc2NC(=O)CN)ccc1Oc1ncc(Br)cn1 | 65 nM | 36.8 µM
O=[N+]([O-])c1cccc(-c2cc(-c3cc(Br)ccc3O)[nH]n2)c1 | 1470 nM | 21.1 µM
CC(=O)NC1=CC(=O)c2cc(C)cc(O)c2C1=O | 1870 nM | 5.98 µM
Nc1ccc(-n2c(=O)oc3ccc(Cl)cc3c2=O)c(Cl)c1 | 90.3 nM | 0.383 µM
Cc1cc2nc3c4cccc(O)c4n(CCN(C)C)c3nc2cc1C | 2560 nM | 8.19 µM
COc1cc2ncn(-c3cc(OCc4ccccc4S(C)(=O)=O)c(C#N)s3)c2cc1OC | > 25000 nM | > 25 µM
C=C(C)[C@@H]1CC[C@]2(C(=O)NCCNCCNCCN)CC[C@]3(C)[C@H](CC[C@@H]4[C@@]5(C)CCC(=O)C(C)(C)[C@@H]5CC[C@]43C)[C@@H]12 | 8090 nM | 16.1 µM
CNCCOC(=O)/C=C1/CCC2C(C(O)CC3C(C)(C(=O)OC)CCCC23C)C1C (stereo not given) | 37.7 nM | 0.148 µM
N=C(N)c1ccc(-c2ccc(-c3ccc(F)cc3)o2)o1 | 1360 nM | 3 µM
COC(=O)[C@@H]1CCCN1C(=O)[C@H]1CCCN1C(=O)[C@@H](Cc1c[nH]c2ccccc12)NC(=S)Nc1cc(C(F)(F)F)cc(C(F)(F)F)c1 | 2150 nM | 6.94 µM
CCCCCCCCCCCCCCCCn1cc[n+](Cc2ccccc2)c1C | 305 nM | 0.84 µM
CCC(=O)c1ccc2c(c1)N(CCCN1CCN(CCO)CC1)c1ccccc1S2 | 10500 nM | 23.5 µM
O=C(/C=C\c1ccc2ccccc2n1)c1cc(Cl)ccc1O | 5100 nM | 19.7 µM

From PubChem BioAssay (NCI)
